21 compounds from PubChem BioAssay (NCI) can be followed below.

Some test systems named below: LOX IMVI melanoma; MDA-N; OVCAR-3 ovarian; DU-145 prostate; SNB-19 CNS; SW-620 colon; NCI-H460 lung; UACC-62 melanoma; SNB-75 CNS; RPMI-8226 leukemia.
Assay in all cases: NCI anticancer screen, dose series, 48 h

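Results reflect a 48-hour exposure of cells in 96-well plates to compound at five concentrations. TGI marks complete inhibition of growth.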 Bounds are passed on as bounds.

Consider `COc1c(-c2cc(C)c(Cl)c(=O)[nH]2)c(O)c(OC)c2occc12`, for which the TGI in the test with LOX IMVI melanoma, in the test on MDA-N, in the test on OVCAR-3 ovarian, in the test with DU-145 prostate, in the test with SNB-19 CNS and in the test on SW-620 colon was above 100 µM throughout. Further, the TGI in the test on NCI-H460 lung, with UACC-62 melanoma, in the test with SNB-75 CNS and with RPMI-8226 leukemia was above 100 µM each time.
For `Cn1ccnc1CCc1ccc(F)cc1F`, the TGI in the test on LOX IMVI melanoma, in the test on MDA-N, with OVCAR-3 ovarian, in the test with DU-145 prostate, in the test with SNB-19 CNS and in the test with SW-620 colon was above 100 µM in each case. Besides, the TGI in the test with NCI-H460 lung, with UACC-62 melanoma, with SNB-75 CNS and with RPMI-8226 leukemia was above 100 µM each time.
In the case of `O=C(NCC1Nc2ccncc2S(=O)(=O)N1)c1ccc(Br)cc1` (centres undefined), the TGI with LOX IMVI melanoma is above 100 µM; in the test with MDA-N, 58.6 µM; in the test with OVCAR-3 ovarian, above 100 µM; with DU-145 prostate, above 100 µM; in the test on SNB-19 CNS, above 100 µM; in the test on SW-620 colon, above 100 µM. Moreover, the TGI with NCI-H460 lung, in the test with UACC-62 melanoma, with SNB-75 CNS and with RPMI-8226 leukemia was above 100 µM in each case.
Regarding `Brc1ccc2c(-c3nc(-c4c[nH]c5ccccc45)cs3)c[nH]c2c1`, the TGI in the test on LOX IMVI melanoma was above 73 µM; in the test with MDA-N, above 100 µM; in the test with OVCAR-3 ovarian, above 100 µM; with DU-145 prostate, above 100 µM; in the test with SNB-19 CNS it was above 100 µM; with SW-620 colon, above 86.8 µM. Besides, the TGI in the test on NCI-H460 lung, in the test on UACC-62 melanoma, in the test with SNB-75 CNS and in the test on RPMI-8226 leukemia was above 100 µM throughout.
On to `O=C1NN=C(c2ccc(Cl)cc2)CC1C1C(=O)N(c2ccccc2)N=C1c1ccccc1` (centres undefined), for which the TGI in the test on LOX IMVI melanoma was 45.9 µM; in the test on MDA-N, above 100 µM; in the test on OVCAR-3 ovarian, 72.9 µM; in the test with DU-145 prostate it was above 100 µM; in the test on SNB-19 CNS, above 100 µM; in the test on SW-620 colon, above 100 µM. Moreover, the TGI was 80.4 µM in the test on NCI-H460 lung, 72.8 µM with UACC-62 melanoma, above 100 µM with SNB-75 CNS and above 100 µM in the test on RPMI-8226 leukemia.
As for `CC/C(Cl)=N\OC(=O)Nc1ccc(OC)cc1`, the TGI turned out to be 4.89 µM in the test on LOX IMVI melanoma; 11.3 µM in the test on MDA-N; 10.7 µM in the test with OVCAR-3 ovarian; 31.3 µM with DU-145 prostate; 56.2 µM in the test with SNB-19 CNS; 44.9 µM in the test on NCI-H460 lung. In addition, the TGI worked out at 24.6 µM in the test with UACC-62 melanoma, 19.3 µM in the test on SNB-75 CNS and 5.59 µM in the test on RPMI-8226 leukemia.
Take `COc1ccc(/C=N\N2CC(=O)N3C4C=CC(CC4)N3C2=O)cc1` (centres undefined): the TGI in the test with LOX IMVI melanoma, with MDA-N, with OVCAR-3 ovarian, with DU-145 prostate, in the test on SNB-19 CNS and in the test with SW-620 colon was above 100 µM in each case. Besides, the TGI with NCI-H460 lung, in the test on UACC-62 melanoma, in the test with SNB-75 CNS and in the test on RPMI-8226 leukemia was above 100 µM throughout.
`Cc1c(-c2ccccc2)c(C#N)c2nnn(-c3ccccc3)c(=O)n12`: the TGI with LOX IMVI melanoma, in the test with MDA-N, with OVCAR-3 ovarian, with DU-145 prostate, in the test on SNB-19 CNS and with SW-620 colon was above 100 µM in each case. Besides, the TGI with NCI-H460 lung, in the test on UACC-62 melanoma, in the test on SNB-75 CNS and in the test on RPMI-8226 leukemia was above 100 µM each time.
As to `O=C(O)Cc1ccc(Oc2nc3ccccc3nc2-c2cccs2)cc1`, the TGI in the test on LOX IMVI melanoma, in the test on MDA-N, in the test with OVCAR-3 ovarian, in the test on DU-145 prostate, in the test with SNB-19 CNS and in the test on SW-620 colon was above 100 µM in each case. For the same compound, the TGI in the test with NCI-H460 lung is above 100 µM; with UACC-62 melanoma it was above 100 µM; in the test with SNB-75 CNS, 83.2 µM; with RPMI-8226 leukemia, above 100 µM.
For the compound `[O-][n+]1onc2c3nn(-c4ccccc4)nc3ccc21`, the TGI with LOX IMVI melanoma was above 58.3 µM; in the test on MDA-N, above 100 µM; in the test on OVCAR-3 ovarian it was 72 µM; in the test with DU-145 prostate it was 57.8 µM; with SNB-19 CNS, above 100 µM; in the test on SW-620 colon, above 100 µM. The TGI in the test with NCI-H460 lung is above 100 µM; in the test with UACC-62 melanoma, above 100 µM; in the test with SNB-75 CNS, above 100 µM; in the test on RPMI-8226 leukemia, 53.3 µM.
On to `Cc1cc(NS(=O)(=O)c2ccc(NC(=O)c3ccc4nc5ccccc5c(Nc5ccc(S(=O)(=O)N=C(N)N)cc5)c4c3)cc2)no1`, for which the TGI turned out to be 23.1 µM in the test on LOX IMVI melanoma; 41.4 µM in the test with MDA-N; 34.6 µM in the test with OVCAR-3 ovarian; 32.3 µM in the test on DU-145 prostate; 94.3 µM in the test on SNB-19 CNS; 48.5 µM in the test with SW-620 colon. Besides, the TGI with NCI-H460 lung amounted to 34.5 µM; with UACC-62 melanoma it was 46.5 µM; in the test with SNB-75 CNS it was 51.9 µM; in the test with RPMI-8226 leukemia, 71.9 µM.
`CC(C)CC(=O)NC(Nc1ccc(S(=O)(=O)Nc2ncccn2)cc1)(C(F)(F)F)C(F)(F)F`: the TGI in the test with LOX IMVI melanoma, in the test with MDA-N, with OVCAR-3 ovarian, in the test on DU-145 prostate, with SNB-19 CNS and with SW-620 colon was above 100 µM each time. In addition, the TGI in the test with NCI-H460 lung, in the test with UACC-62 melanoma, in the test with SNB-75 CNS and with RPMI-8226 leukemia was above 100 µM each time.
As for `CC1CN=C(Nc2cccc(C(F)(F)F)c2)S1` (centres undefined), the TGI in the test on LOX IMVI melanoma, in the test on MDA-N, in the test on OVCAR-3 ovarian, in the test on DU-145 prostate, with SNB-19 CNS and in the test with NCI-H460 lung was above 100 µM each time. Moreover, the TGI with UACC-62 melanoma, in the test on SNB-75 CNS and in the test on RPMI-8226 leukemia was above 100 µM each time.
With `CC1(C)O[C@H](C(=O)O)[C@@H](C(=O)O)O1`, the TGI with LOX IMVI melanoma, with MDA-N, with DU-145 prostate, in the test on SNB-19 CNS, in the test on SW-620 colon and in the test with NCI-H460 lung was above 100 µM in each case. The TGI in the test with UACC-62 melanoma, in the test with SNB-75 CNS and with RPMI-8226 leukemia was above 100 µM in each case.
On to `c1ccc2c(c1)c1c(n2CCOCCN2CCCCC2)CCCC1`, for which the TGI came to 28.3 µM with LOX IMVI melanoma; 28.7 µM with MDA-N; 21.7 µM in the test with OVCAR-3 ovarian; 32.6 µM with DU-145 prostate; 35.7 µM with SW-620 colon; 28.2 µM in the test with NCI-H460 lung. Moreover, the results for the TGI with UACC-62 melanoma, in the test with SNB-75 CNS and in the test with RPMI-8226 leukemia were 28.7 µM, 26.7 µM and 28 µM, respectively.
For `O=c1c2ccccc2oc2c1ccc1ncccc12`, the TGI is 43.8 µM in the test with LOX IMVI melanoma; above 100 µM in the test on MDA-N; 89.6 µM in the test with OVCAR-3 ovarian; 59.5 µM in the test on DU-145 prostate; 42 µM with SW-620 colon; 17 µM in the test with NCI-H460 lung. The figures for the TGI in the test on UACC-62 melanoma, in the test with SNB-75 CNS and in the test with RPMI-8226 leukemia were 73.6 µM, 95.5 µM and above 100 µM, respectively.
Consider `COc1ccc2c(c1)OCC1(O)Cc3ccccc3OC21` (centres undefined), for which the TGI in the test on LOX IMVI melanoma, in the test with MDA-N, in the test on OVCAR-3 ovarian, in the test with DU-145 prostate, in the test on SW-620 colon and with UACC-62 melanoma was above 100 µM throughout. Moreover, the TGI in the test with SNB-75 CNS and in the test on RPMI-8226 leukemia was above 100 µM throughout.
As for `CC(C)(C)c1cc(C(O)(C(=O)O)C(=O)O)cc(C(C)(C)C)c1O`, the TGI in the test with LOX IMVI melanoma, with MDA-N, in the test on OVCAR-3 ovarian, in the test with DU-145 prostate, with SNB-19 CNS and in the test with SW-620 colon was above 100 µM each time. Also, the TGI with UACC-62 melanoma, in the test on SNB-75 CNS and with RPMI-8226 leukemia was above 100 µM in each case.
With `COCn1c2ccc(OC(C)=O)cc2c2c(=O)oc(C)nc21`, the TGI with LOX IMVI melanoma, in the test with MDA-N, in the test with DU-145 prostate, in the test with SNB-19 CNS, with SW-620 colon and in the test with NCI-H460 lung was above 100 µM throughout. Further, the TGI in the test on UACC-62 melanoma, with SNB-75 CNS and in the test with RPMI-8226 leukemia was above 100 µM in each case.
In the case of `COc1ccc(-c2oc3ccc(C)cc3c(=O)c2O)cc1`, the TGI in the test on LOX IMVI melanoma, with MDA-N, with OVCAR-3 ovarian, in the test with DU-145 prostate, in the test with SNB-19 CNS and with SW-620 colon was above 100 µM in each case. Also, the TGI in the test on UACC-62 melanoma, with SNB-75 CNS and in the test with RPMI-8226 leukemia was above 100 µM in each case.
Consider `COc1cc2c(cc1OC)C1CN3C(=O)CCC3C(O)C1c1cc(OC)c(OC)cc1-2` (centres undefined), for which the TGI with LOX IMVI melanoma, in the test on MDA-N, in the test with DU-145 prostate, in the test with SNB-19 CNS, in the test with SW-620 colon and in the test with NCI-H460 lung was above 100 µM each time. Besides, the TGI in the test with UACC-62 melanoma, with SNB-75 CNS and in the test on RPMI-8226 leukemia was above 100 µM throughout.
